Usually pKb stands for −log10 of the Kb, conventionally taken in molar units. A high value points to a low Kb. In general, Ki refers to the equilibrium dissociation constant of an inhibitor or competing ligand from its target. Read a high Ki as lower affinity. For orientation: EC50 means the concentration needed to bring the measured effect to its halfway point. Read a high EC50 as a need for much substance.

The source of these data is ChEMBL document CHEMBL1152051, “Synthesis and preliminary pharmacological evaluation of 2-benzyloxy substituted aryl ketones as 5-HT4 receptor antagonists” (Bioorg Med Chem Lett, 1994).

The target in assay [1] is 5-hydroxytryptamine receptor 4 (Rattus norvegicus) (UniProt Q62758). Put plainly: Compound was tested against 5-HT4 receptor through antagonism of 5-HT mediated relaxation of rat, carbachol contracted esophageal muscularis mucosae. The class given is functional.
Assay [2] has as its target 5-hydroxytryptamine receptor 4 (Cavia porcellus, UniProt O70528). Briefly: Compound was tested for binding affinity against 5-HT4 receptor in guinea pig striata using [3H]GR-113808 as radioligand.
For assay [3], the target named is 5-hydroxytryptamine receptor 4 (Rattus norvegicus, UniProt Q62758). Briefly: Compound was tested against 5-HT4 receptor through agonism of 5-HT mediated relaxation of rat, carbachol contracted esophageal muscularis mucosae. The class given is functional.

Molecules are shown by their SMILES.

Sequence of 5-hydroxytryptamine receptor 4 (Rattus norvegicus) (Q62758 whole entry): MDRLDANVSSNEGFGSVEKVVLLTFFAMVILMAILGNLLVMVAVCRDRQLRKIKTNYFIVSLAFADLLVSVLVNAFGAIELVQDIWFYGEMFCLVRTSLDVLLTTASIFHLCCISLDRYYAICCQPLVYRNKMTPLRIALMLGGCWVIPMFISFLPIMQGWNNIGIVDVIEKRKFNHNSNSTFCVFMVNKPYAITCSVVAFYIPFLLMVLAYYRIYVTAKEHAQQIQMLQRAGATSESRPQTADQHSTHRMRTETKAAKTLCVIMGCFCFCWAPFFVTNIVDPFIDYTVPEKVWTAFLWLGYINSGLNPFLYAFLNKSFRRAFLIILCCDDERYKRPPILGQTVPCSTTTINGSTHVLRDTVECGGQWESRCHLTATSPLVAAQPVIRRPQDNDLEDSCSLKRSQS
Sequence of 5-hydroxytryptamine receptor 4 (Cavia porcellus, UniProt O70528) (O70528 whole entry): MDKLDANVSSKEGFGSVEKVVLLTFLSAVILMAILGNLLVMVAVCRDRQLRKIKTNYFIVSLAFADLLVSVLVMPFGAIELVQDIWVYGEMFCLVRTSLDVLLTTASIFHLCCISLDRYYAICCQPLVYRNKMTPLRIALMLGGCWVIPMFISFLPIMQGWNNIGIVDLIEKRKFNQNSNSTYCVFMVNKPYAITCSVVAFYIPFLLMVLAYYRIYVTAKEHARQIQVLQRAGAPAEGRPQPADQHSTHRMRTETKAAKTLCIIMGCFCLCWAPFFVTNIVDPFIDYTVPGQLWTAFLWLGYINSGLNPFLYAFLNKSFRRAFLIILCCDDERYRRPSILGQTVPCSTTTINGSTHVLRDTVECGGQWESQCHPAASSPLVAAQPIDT
Sequence of 5-hydroxytryptamine receptor 4 (Rattus norvegicus, UniProt Q62758) (Q62758 whole entry): as the sequence (Q62758 whole entry) above

In turn, `Cn1cc(C(=O)OCC2CCN(CCNS(C)(=O)=O)CC2)c2ccccc21` registered a pKb in assay [1] of 9.

As for `COc1ccc(COc2cc(N)c(Cl)cc2C(=O)CCCCN2CCCCC2)cc1OC`, in assay [1], the pKb worked out at 8.5.

In the case of `COc1cc(COc2cc(N)c(Cl)cc2C(=O)CCCCN2CCC(NC(N)=O)CC2)cc(OC)c1`, the pKb in assay [1] stood at 8.5.

Compound `COc1cc(COc2cc(N)c(Cl)cc2C(=O)CCCCN2CCC(c3ccccc3)CC2)cc(OC)c1` returned a negative-log Kb (pKb) in assay [1] of 7.7.

In the case of `COc1cc(COc2cc(N)c(Cl)cc2C(=O)CCCCN2CCCCC2)cc(OC)c1`, the pKb in assay [1] stood at 8.5.

Turning to `COc1cc(COc2cc(N)c(Cl)cc2C(=O)CCCCN2CCC(NS(C)(=O)=O)CC2)cc(OC)c1`, in assay [1], the pKb turned out to be 8.4.

`COc1cc(COc2cc(N)c(Cl)cc2C(=O)CCCCN2CCC(C(N)=O)CC2)cc(OC)c1` had a pKb in assay [1] of 8.4.

Take `CCOc1cc(N)c(Cl)cc1C(=O)CCCCN1CCCCC1`: the pKb in assay [1] is < 7.

`CCCCN1CCC(COC(=O)c2cc(Cl)c(N)c3c2OCCO3)CC1` had a Ki in assay [2] of 0.0129 nM.

With `COc1ccc(CCOc2cc(N)c(Cl)cc2C(=O)CCCCN2CCCCC2)cc1OC`, in assay [1], the pKb was 6.8.

`COc1cc(COc2cc(N)c(Cl)cc2C(=O)CCCCN2CCC(CCNS(C)(=O)=O)CC2)cc(OC)c1` showed a pKb in assay [1] of 8.1.

With `COc1cc(COc2cc(N)c(Cl)cc2C(=O)CCC2CCN(CCCNS(C)(=O)=O)CC2)cc(OC)c1`, the negative logarithm of the Kb (pKb) in assay [1] worked out at 8.8. The same compound showed a Ki in assay [2] of 0.339 nM.

For `COc1cc(COc2cc(N)c(Cl)cc2C(=O)CCCCN2CCC(C)CC2)cc(OC)c1`, the pKb in assay [1] came to 8.3.

In assay [1], `COc1cc(COc2cc(N)c(Cl)cc2C(=O)CCCCN2CCC(O)CC2)cc(OC)c1` yielded a pKb of 8.3.

On to `COc1cc(COc2cc(N)c(Cl)cc2C(=O)CCCCN2CCC(OC)CC2)cc(OC)c1`, for which the pKb in assay [1] stood at 8.4.

In turn, `CCCCCN1CCC(CCC(=O)c2cc(Cl)c(N)cc2OCc2cc(OC)cc(OC)c2)CC1` showed a pKb in assay [1] of 9.1. In assay [2], this compound showed a Ki of 0.813 nM.

In assay [1], `COc1cc(COc2cc(N)c(Cl)cc2C(=O)CCC2CCN(CCN(C)S(C)(=O)=O)CC2)cc(OC)c1` returned a pKb of 9.1. In assay [2], this compound had an inhibition constant (Ki) of 0.468 nM.

As to `CCCC1CCN(CCCCC(=O)c2cc(Cl)c(N)cc2OCc2cc(OC)cc(OC)c2)CC1`, in assay [1], the pKb is 7.7.

For the compound `COc1cc(N)c(Cl)cc1C(=O)CCCCN1CCCCC1`, in assay [3], the EC50 is 39.8 nM.

In assay [1], `CCCCN1CCC(CCC(=O)c2cc(Cl)c(N)cc2OCc2cc(OC)cc(OC)c2)CC1` registered a pKb of 8.9. Besides, the Ki in assay [2] is 0.479 nM.

As for `COc1ccc(COc2cc(N)c(Cl)cc2C(=O)CCCCN2CCCCC2)cc1`, the pKb in assay [1] came out at 8.4.

The compound `COc1cc(COc2cc(N)c(Cl)cc2C(=O)CCCCN2CCC(CNS(C)(=O)=O)CC2)cc(OC)c1` came in with a pKb in assay [1] of 8.9.

In assay [1], `COc1cc(COc2cc(N)c(Cl)cc2C(=O)CCC2CCN(CCNS(C)(=O)=O)CC2)cc(OC)c1` came in with a pKb of 9.2. The Ki in assay [2] was 0.741 nM.

In turn, `CCCOc1cc(N)c(Cl)cc1C(=O)CCCCN1CCCCC1` had an EC50 in assay [3] of 2000 nM.

For the compound `CS(=O)(=O)NCCN1CCC(CCC(=O)c2cc(Cl)c(N)cc2OCc2ccccc2)CC1`, in assay [1], the pKb stood at 8.1. In assay [2], this compound had an inhibition constant (Ki) of 1.78 nM.
